Source: article PMC6476959, “Novel 3,4-Dihydroisocoumarins Inhibit Human P-gp and BCRP in Multidrug Resistant Tumors and Demonstrate Substrate Inhibition of Yeast Pdr5” (Frontiers in Pharmacology, 2019)

Legend:
BCRP = biological target: T1, BCRP (Homo sapiens, UniProt Q9UNQ0); assay: BCRP transport assay (Hoechst 33342) in MCF-7/MX cells; type: cell-based
T1 construct: endogenous in cells; host or cells: MCF-7/MX human breast adenocarcinoma cells (mitoxantrone-selected)
T1 sequence (Q9UNQ0 1-655): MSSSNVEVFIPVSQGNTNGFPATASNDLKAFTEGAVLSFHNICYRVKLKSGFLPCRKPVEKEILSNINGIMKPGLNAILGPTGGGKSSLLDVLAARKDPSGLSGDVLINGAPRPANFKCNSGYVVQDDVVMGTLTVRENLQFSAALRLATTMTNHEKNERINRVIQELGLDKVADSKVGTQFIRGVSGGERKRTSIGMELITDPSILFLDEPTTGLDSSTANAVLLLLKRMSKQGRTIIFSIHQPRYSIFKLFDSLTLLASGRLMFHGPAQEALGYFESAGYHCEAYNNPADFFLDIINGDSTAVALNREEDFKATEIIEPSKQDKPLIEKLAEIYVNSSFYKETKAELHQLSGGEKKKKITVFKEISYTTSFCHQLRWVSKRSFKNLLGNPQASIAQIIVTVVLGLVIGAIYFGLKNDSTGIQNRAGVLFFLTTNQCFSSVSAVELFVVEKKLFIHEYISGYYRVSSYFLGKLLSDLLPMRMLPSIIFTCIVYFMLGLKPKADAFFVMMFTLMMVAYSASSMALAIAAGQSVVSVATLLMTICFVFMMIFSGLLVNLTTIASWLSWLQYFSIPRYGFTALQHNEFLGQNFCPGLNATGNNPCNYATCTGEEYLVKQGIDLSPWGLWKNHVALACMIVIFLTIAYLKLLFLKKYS
Experimental: Breast cancer resistance protein transport activity was determined in the BCRP-expressing MCF-7/MX cell line. Hoechst 33342 was applied as transporter substrate and 1 μM Ko143 as positive control or 0.5% DMSO as negative control and the assay was performed according to the P-gp assay. Fluorescence was measured at an excitation wavelength of 355 nm and emission wavelength of 460 nm. The transport activity of BCRP was analyzed by determining the plateau of the fluorescence-time curve by using non-linear regression (one-phase exponential fit). Normalization of the data to Ko143 (100% inhibition) and DMSO (0% inhibition) was performed.

H69AR cells = assay: CellTiter-Glo cell viability assay (cytotoxicity), H69AR; type: cell-based; details: Homo sapiens, 48 h, MRP1-expressing, mean ± SEM
Experimental: (§1) The human lung adenocarcinoma cell line A549 was cultured in DMEM medium supplemented with 10% fetal bovine serum (FBS), 100 U/mL penicillin and 100 μg/mL streptomycin. P-gp-expressing human colon adenocarcinoma cells HCT-15 were cultured in RPMI 1640 medium supplemented with 10% FBS, 100 U/mL penicillin and 100 μg/mL streptomycin. BCRP-expressing MCF-7/MX human breast adenocarcinoma cells were cultured in DMEM medium supplemented with 10% FBS, 100 U/mL penicillin and 100 μg/mL streptomycin. MRP1-expressing H69AR human small cell lung cancer cells were cultured in RPMI 1640 medium (ATCC modification) supplemented with 20% FBS, 100 U/mL penicillin and 100 μg/mL streptomycin. All cancer cell lines employed have been systematically characterized regarding their respective ABC transporter expression profile ([Sachs et al., 2019]).
(§2) Cytotoxic activity of test compounds was analyzed after 48 h using the CellTiter-Glo Luminescent Cell Viability Assay published previously ([Weber et al., 2017]) in 384-well plates with the following cell densities: A549, MCF-7/MX: 2 × 10^3 cells/well; HCT-15: 3 × 10^3 cells/well; H69AR: 5 × 10^3 cells/well. Pipetting was conducted with the CyBi-Well 96-channel simultaneous pipettor (Analytik Jena AG, Jena, Germany). For generation of dose-response curves and calculation of IC50 values, the four-parameter logistic model was applied.

A549 cells = assay: CellTiter-Glo cell viability assay (cytotoxicity), A549; type: cell-based, human; details: for IC50: Homo sapiens, A549, 48 h, mean ± SEM
Experimental: as §1, §2

HCT-15 cells = assay: CellTiter-Glo cell viability assay (cytotoxicity), HCT-15; type: cell-based; details: Homo sapiens, 48 h, P-gp expressing, mean ± SEM
Experimental: as §1, §2

P-gp = biological target: T2, P-gp (Homo sapiens, UniProt P08183); assay: P-gp transport assay (calcein-AM) in HCT-15 cells; type: cell-based
T2 construct: endogenous in cells; host or cells: HCT-15 human colon adenocarcinoma cells
Experimental: The transport of calcein-AM by P-gp and its modulation by test compounds was analyzed in the P-gp-expressing HCT-15 cell line. 5 × 10^4 cells were seeded in black 96-well plates and incubated at 37°C and 5% CO2 for 24 h. The culture medium was removed and replaced by Hank’s balanced salt solution supplemented with 10 mM HEPES. Test compounds, 2.5 μM PSC833 (positive control) or 0.5% DMSO (negative control) were added in triplicates and incubated for 30 min at 37°C and 5% CO2. The substrate calcein-AM was added (final concentration 0.5 μM) and the fluorescence (excitation 485 nm, emission 520 nm) was measured over 3 h with the Infinite m1000 pro microplate reader (Tecan Group AG, Männedorf, Switzerland) at 37°C. The transport activity of P-gp was analyzed by determining the slope of the linear part of the fluorescence-time curve (0–30 min) using linear regression. Normalization of the data to PSC833 (100% inhibition) and DMSO (0% inhibition) was performed.

T2 sequence (P08183 whole entry): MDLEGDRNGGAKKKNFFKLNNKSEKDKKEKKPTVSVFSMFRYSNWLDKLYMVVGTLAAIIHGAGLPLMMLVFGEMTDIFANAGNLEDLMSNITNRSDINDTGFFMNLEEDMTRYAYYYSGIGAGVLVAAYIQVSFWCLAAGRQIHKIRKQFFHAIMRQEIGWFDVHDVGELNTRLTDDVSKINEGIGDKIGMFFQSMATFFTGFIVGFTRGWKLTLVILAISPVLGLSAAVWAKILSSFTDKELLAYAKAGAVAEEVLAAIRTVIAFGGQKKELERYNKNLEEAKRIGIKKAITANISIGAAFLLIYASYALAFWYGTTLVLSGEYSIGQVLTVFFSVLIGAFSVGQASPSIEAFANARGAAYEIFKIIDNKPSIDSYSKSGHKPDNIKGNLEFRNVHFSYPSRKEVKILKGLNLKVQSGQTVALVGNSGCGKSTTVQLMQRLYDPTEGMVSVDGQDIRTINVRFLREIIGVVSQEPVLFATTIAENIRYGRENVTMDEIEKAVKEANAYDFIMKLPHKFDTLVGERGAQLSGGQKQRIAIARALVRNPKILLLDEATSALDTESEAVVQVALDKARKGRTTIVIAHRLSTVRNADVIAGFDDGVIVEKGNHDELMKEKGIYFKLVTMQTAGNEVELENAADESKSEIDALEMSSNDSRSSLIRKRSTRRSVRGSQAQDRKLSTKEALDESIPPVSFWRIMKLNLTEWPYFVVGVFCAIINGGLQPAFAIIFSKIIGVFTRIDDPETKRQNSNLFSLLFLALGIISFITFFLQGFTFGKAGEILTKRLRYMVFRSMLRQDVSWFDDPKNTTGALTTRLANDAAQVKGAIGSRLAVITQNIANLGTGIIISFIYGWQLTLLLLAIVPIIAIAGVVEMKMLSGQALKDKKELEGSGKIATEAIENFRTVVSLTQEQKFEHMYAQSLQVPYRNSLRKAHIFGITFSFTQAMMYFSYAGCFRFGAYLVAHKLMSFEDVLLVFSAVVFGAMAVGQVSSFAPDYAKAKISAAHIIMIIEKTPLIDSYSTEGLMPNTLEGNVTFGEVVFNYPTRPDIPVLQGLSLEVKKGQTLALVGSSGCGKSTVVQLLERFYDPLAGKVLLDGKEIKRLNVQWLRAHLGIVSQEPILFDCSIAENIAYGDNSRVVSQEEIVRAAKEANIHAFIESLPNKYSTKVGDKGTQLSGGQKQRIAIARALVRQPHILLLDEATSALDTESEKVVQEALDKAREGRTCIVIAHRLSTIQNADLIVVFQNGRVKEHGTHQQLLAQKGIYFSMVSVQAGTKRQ

Structure (SMILES)	Inhibition of BCRP (in words) (BCRP)	IC50 (H69AR cells)	IC50 (A549 cells)	IC50 (HCT-15 cells)	Inhibition of P-gp (in words) (P-gp)	Relative inhibition of P-gp, span over the tested concentrations (P-gp; different concentrations, normalized to PSC833)	inhibition at 3 h, 10 μM (BCRP; human, BCRP-expressing MCF-7/MX cells, probe Hoechst 33342, 10 μM, normalized to 1 μM Ko143 (100%) and DMSO (0%), read-out: Relative inhibition of BCRP)	inhibition at 3 h, 50 μM (BCRP; human, BCRP-expressing MCF-7/MX cells, probe Hoechst 33342, 50 μM, normalized to 1 μM Ko143 (100%) and DMSO (0%), read-out: Relative inhibition of BCRP)	inhibition at 10 μM (P-gp; human, P-gp-expressing HCT-15 cells, probe calcein-AM (0.5 μM), 10 μM, normalized to 2.5 μM PSC833 (100%) and DMSO (0%), read-out: Relative inhibition of P-gp)	inhibition at 50 μM (P-gp; human, P-gp-expressing HCT-15 cells, probe calcein-AM (0.5 μM), 50 μM, normalized to 2.5 μM PSC833 (100%) and DMSO (0%), read-out: Relative inhibition of P-gp)	inhibition at 3 h (BCRP; human, BCRP-expressing MCF-7/MX cells, probe Hoechst 33342, different concentrations, normalized to Ko143, read-out: Relative inhibition of BCRP, span over the tested concentrations)	fold lower IC50 value than compound 16 (A549 cells; A549 cells)	inhibition at 20 μM (P-gp; human, P-gp-expressing HCT-15 cells, probe calcein-AM (0.5 μM), 20 μM, normalized to 2.5 μM PSC833 (100%) and DMSO (0%), read-out: Relative inhibition of P-gp)
COc1cc(O)c2c(c1)C[C@H](C)OC2=O [Angelicoin B (4), angelicoin B]	no inhibitory activity could be observed	> 100 µM	> 100 µM	> 100 µM	did not differ significantly from those of derivative 14	–	–	–	–	–	–	–	–
COc1cc(O)c2c(c1)CCOC2=O [Compound 14]	did not inhibit BCRP	> 100 µM	> 100 µM	> 100 µM	–	up to 10%	–	–	–	–	–	–	–
CCCCCC1Cc2cc(OC)cc(O)c2C(=O)O1 (centres unmarked) [Compound 16]	–	88.5 ± 4.6 µM	78.6 ± 2.2 µM	> 100 µM	–	–	35.3 ± 3.4%	89.1 ± 4.6%	36.3 ± 5.3%	81.2 ± 2.7%	–	–	–
CCCCCC1Cc2cc(OC)cc(OC)c2C(=O)O1 (centres unmarked) [Compound 16a]	–	> 100 µM	53.6 ± 5.6 µM	> 100 µM	–	–	–	–	–	–	2.3 to 14.9%	about 1.5 fold	> 20%
